How the values were obtained:
Thio-Q62 protein = assay: seed-induced polyQ aggregation reaction (turbidity); format: biochemical; details: 10 μM Thio-Q62 + seeds, 400 mM arginine or proline, 37° C., 7 days
Method: A solution in which abnormally expanded proteins were dissolved in physiological saline phosphate (PBS) was used as a measurement sample. The solution was incubated at 37° C., and turbidity at 405 nm was measured every 24 hours using a microplate reader “Spectramax Plus plate reader” (Molecular Devices Inc.).

MJDtr-Q78(S) flies = assay: Drosophila model of the PolyQ diseases (SCA3/MJD); format: in vivo, Drosophila melanogaster
Method: The spinocerebellar ataxia type 3 (SCA3/MJD) model flies were used, which express the truncated form of the MJD protein with an abnormally expanded polyQ repeat consisting of 78 glutamines (MJDtr-Q78) in the compound eye (Non-Patent Document 12). The severe compound eye degeneration induced by MJDtrQ78 can be easily detected under the light microscope.
Fly culture and crosses were performed under standard conditions at 25° C. The MJDtr-Q78(S) transgenic fly line bearing the UAS-MJDtr-Q78 transgene for expression of MJDtr-Q78 described in Non-Patent Document 12 was used. The fly line bearing the gmr-GAL4 transgene was obtained from the Drosophila Genetic Resource Center at Kyoto Institute of Technology, Japan. […] For evaluation of compound eye degeneration, light microscopic images of the compound eye were taken using a stereoscopic microscope model “SZX9” (Olympus). For detection of the MJDtr-Q78 protein in eye imaginal discs of third instar larvae, immunostaining with an anti-hemagglutinin antibody (clone 3F10, Roche) was performed according to the method described in Non-Patent Document 13. Fluorescence microscopic images were taken using a confocal laser scanning microscope model “LSM510” (Carl Zeiss).

[1] = test system: Q40-GFP expressing nematode line; assay: tail-flick test in C. elegans model of the PolyQ diseases; format: in vivo, Caenorhabditis elegans; details: 10 mM arginine, 6 days old nematodes, 20° C.
Method: As a C. elegans model of the polyQ diseases, a Q40-GFP expressing nematode line (Non-Patent Document 14), which is a C. elegans line expressing GFP having a polyQ repeat consisting of 40 glutamines (Q40-GFP) was used.
Nematodes were grown at 20° C. on nematode growth medium (NGM) plates seeded with Escherichia coli OP50. For the generation of the Q40-GFP expression nematode line, plasmids encoding Q40-GFP were injected into wild type strain N2.
Tail-flick tests were performed at 20° C. on nematodes synchronized to 6 days old. First, each nematode was transferred to a separate plate. One drop of S-basal solution was dropped on one nematode, and after waiting for 5 minutes for them to recover, the number of movements of the tail of the worm was measured for 1 minute. The number of movements of the tail was defined as the number of times to change the bending direction of the mid-body of a nematode.

SCA1 mice [2] = assay: immunohistochemical analysis of PolyQ inclusion bodies in brain; format: in vivo, mouse; details: 12-week-old SCA1 mice, 6% arginine in drinking water from 3 weeks
Method: It was reported that SCA1 mice develop polyQ inclusion bodies (PolyQ protein aggregates) in their neurons of the cerebral cortex and hippocampus from around 4 weeks of age (Non-Patent Document 15).
PolyQ inclusion bodies in brain sections were detected using immunohistochemical analysis. First, ten-micrometer-thick frozen sections of 12 week-old SCA1 mouse brains were prepared according to the method described in Non-Patent Document 17. The sections were blocked in PBS containing 5% goat serum and 0.1% Triton X-100 for 1 hour at room temperature, then incubated with a rabbit anti-ubiquitin antibody (clone FK2, 1:500) at 4° C. overnight, followed by an Alexa Fluor 488-conjugated goat anti-rabbit IgG antibody (1:1,000, Life Technologies) for 1 hour at room temperature. […]
By confocal laser scanning microscopy, inclusion bodies stained with the anti-ubiquitin antibody can be visualized. Therefore, the sections were observed using a confocal laser scanning microscope, cells included in the field of view were counted, and the percentage (%) of the cells in which the inclusion bodies were formed to the total number of cells was measured. In each mouse, the cell count was averaged for 3 fields of view, in which over 130 or 70 cells were counted in the cortex or hippocampus, respectively. […]

SCA1 mice [3] = assay: rotarod test, arginine from 5 weeks of age (after onset); format: in vivo, mouse; details: 6% arginine in drinking water from 5 weeks of age; 7 to 19 weeks of age; significant at 15 and 19 weeks
Method: An important factor of consideration in developing treatments for neurodegenerative diseases including polyQ diseases is whether the drug exerts its therapeutic effect at the symptomatic phase when the pathological process has already progressed. To date, therapeutic candidates have been administered to polyQ disease mice prophylactically at the pre-symptomatic phase in most preclinical studies.
The rotarod test was carried out in the same manner as in Example 4. The time courses of the amount of walking time until wild type mice and SCA1 mice fell from the rotarod (Latency) are shown in FIG. 21. In the figure, “WT Water”, “WT Arg”, “SCA1 Water”, and “SCA1 Arg” represent the same as in FIG. 17. In the figure, values represent means±SEM (n=23-25), “*” represents p<0.05.

SBMA mice = assay: horizontal open-field activity and rearing behavior; format: in vivo, mouse; details: 6% arginine in drinking water from 3 weeks; 12 weeks of age
Source text: As another PolyQ disease mouse model, the SBMA mouse (Non-Patent Document 18) was used. […] This motor dysfunction can be reversed with drug treatment (Non-Patent Document 19). The SBMA mouse used in this experiment was a kind gift from Dr. Gen Sobue (Nagoya University, Japan).
The motor dysfunction of the SBMA mouse can be monitored as spontaneous motor dysfunction, by measuring horizontal open-field activity and rearing behavior in the cage (Non-Patent Document 18). […] As a control, water without arginine was given to SBMA mice as drinking water (arginine untreated).
Horizontal open-field activity and rearing behavior were measured using a spontaneous locomotor activity monitor “Supermex” (Muromachi Kikai) according to the method described in Non-Patent Document 18. Specifically, a mouse was placed in a measuring cage in which infrared beams were projected inside and were allowed to move around freely. When the mouse moves inside the measuring cage, the infrared beam is obstructed and the infrared ray cannot be detected by the light receiving part (beam break). The number of beam breaks per minute was determined by measuring the number of beam breaks (counts/min). To detect movements in the horizontal direction, the number of beam breaks of the infrared beams projected in the vertical direction were counted. […]

Structure (SMILES): N=C(N)NCCC[C@H](N)C(=O)O [arginine]
- seed-induced increase in turbidity (Thio-Q62 protein): markedly decreased
- number of inclusion bodies in eye discs of larvae (MJDtr-Q78(S) flies; food containing arginine (100 mM in FIG. 10)): decreased
- compound eye degeneration (MJDtr-Q78(S) flies; food containing either 25, 50 or 100 mM arginine): remarkably ameliorated
- tail movements per minute [1]: significantly improved
- percentage of cells with inclusion body formation, cerebral cortex (SCA1 mice [2]): significantly decreased
- percentage of cells with inclusion body formation, hippocampus (SCA1 mice [2]): significantly decreased
- time to walk without falling from the rotarod (SCA1 mice [3]): longer time to walk without falling from the rotarod than the untreated SCA1 mice
- horizontal activity (SBMA mice): improved to levels comparable to untreated wild type mice
- rearing behavior (SBMA mice): improved to levels comparable to untreated wild type mice

Source: patent US20190314311A1, “PHARMACEUTICAL COMPOSITION” (JAPAN SCIENCE AND TECHNOLOGY AGENCY, priority 2016, published 2019)
